Like-named read-outs stand apart in the source and are kept apart here.
Legend:
[1] = tested on: Calu-3 (human airway epithelial cell line) host cells; type: cell-based
[2] = Saturated aqueous solubility determination; settings: for solubility at 1.5 h: deionized water, 25 °C, water, thermodynamic from solid; for Ratio (relative to CM): solubility relative to creatine monohydrate
Protocol: After 1.5 hour, the saturated solutions were vortexed and 2-ml aliquots removed and centrifuged in microcentrifuge tubes at 11,000 rpm for 5 min. Concentrations were analyzed by HPLC by diluting 500 μL of supernatant with mobile phase (500 μL). The mean±standard deviation of the saturation solubility for each antiviral therapeutic compound is calculated from the corresponding standard curves.

[3] = tested on: Calu-3 (human airway epithelial cell line) host cells; type: cell-based; remark: listed apart in the source
T cells = type: cell-based, human; settings: T cells with T2 cells, Spike peptide […]; vs media alone
[4] = tested on: Madin Darby canine kidney (MDCK) monolayers; experiment: Flux per hour in MDCK monolayers (contemplated); type: in vitro ADME
Source text: […]. […] […].

Caco-2 monolayers = settings: cited from earlier work

Which “IL-1β expression as percent of the expression when no compound is present” value [1] does the source give for `C[N+](C)(C)CC(=O)OC1CCCC1.[Br-]` [betaine cyclopentyl ester] here?
Its value is “less than 20%”.

What about the “IL-6 expression as percent of the expression when no compound is present” value [1] of the same compound?
The value was “less than 55%”.

What about the “TNF expression as percent of the expression when no compound is present” value [1] of the same compound?
The value was “less than 20%”.

And the “reduction of IL-6 expression” value [1]?
The value was “about 60%”.

What about the “reduction of TNF expression” value [1] of the same compound?
The value was “about 45%”.

And the solubility at 1.5 h [2]?
Its solubility at 1.5 h is over 600 mg/mL.

And the “aqueous solubility compared with betaine hydrochloride” value ([2]; not shown)?
The value was “significantly greater than betaine hydrochloride”.

And the “Ratio (relative to CM)” value [2]?
Its value is over 29.

And the “reduction of TNF expression” value [3]?
The value was “slightly reduces”.

And the “release of IFNg from T cells” value (T cells)?
The value was “increased over the control”.

For `CN(CC(=O)OC1CCCCC1)C(=N)N.Cc1ccc(S(=O)(=O)O)cc1` [creatine cyclohexyl ester], which solubility at 1.5 h [2] is on record?
The solubility at 1.5 h was 15 to 20 mg/mL.

What about the “Ratio (relative to CM)” value [2] of the same compound?
The value was 0.71.

What about the “flux per hour relative to creatine monohydrate” value [4] of the same compound?
Its value is “at least double”.

And the “IL-1β expression as percent of the expression when no compound is present” value [3]?
The value was “less than 20%”.

What about the “IL-6 expression as percent of the expression when no compound is present” value [3] of the same compound?
The value was “less than 30%”.

And the “release of IFNg from T cells” value (T cells)?
Its value is “increased over the control”.

What does the source list for `CCOC(=O)CN(C)C(=N)N.Cl` [creatine ethyl ester hydrochloride]?
solubility at 1.5 h [2]: > 200 mg/mL; permeability relative to creatine monohydrate (Caco-2 monolayers): 15 fold

For `CCCCCCCCCCCC(=O)OCC(COC(=O)CCCCCCCCCCC)OC(=O)CN(C)C(=N)N` [creatine glycerol laurate ester], which “flux per hour relative to creatine monohydrate” value [4] is on record?
Its value is “at least double”.

For `CN(CC(=O)O)C(=N)N.Cl` [creatine hydrochloride], which “reduction of CXCL2 expression” value [1] is on record?
The value was 25 to 30%.

What about the “reduction of TNF expression” value [1] of the same compound?
The value was “about 25%”.

What about the “reduction of TNF expression” value [3] of the same compound?
The value was “slightly reduces”.

What about the “release of IFNg from T cells” value (T cells) of the same compound?
The value was “increased over the control”.

Which solubility at 1.5 h [2] does the source give for `CC(C)CCOC(=O)CN(C)C(=N)N.Cl` [creatine isopentyl ester] here?
The solubility at 1.5 h was over 600 mg/mL.

And the “Ratio (relative to CM)” value [2]?
The value was over 29.

And the “IL-1β expression as percent of the expression when no compound is present” value [3]?
The value was “less than 35%”.

And the “release of IFNg from T cells” value (T cells)?
The value was “increased over the control”.

For `CN(CC(=O)O)C(=N)N.O` [creatine monohydrate, reference compound], which apparent permeability coefficient (Caco-2 monolayers) is on record?
The apparent permeability coefficient was “about 0.12±0.004 10^−6 cm/s”.

With `CCCCCCCCCCCC(=O)OC(C)COC(=O)CN(C)C(=N)N` (stereo not shown) [creatine propylene glycol laurate ester] as the compound, how does the “flux per hour relative to creatine monohydrate” value [4] read?
Its value is “at least double”.

With “ethyl (α-guanido-methyl) ethanoate [Alpha-GEE]” as the compound, how does the “reduction of CXCL2 expression” value [3] read?
Its value is about 70%.

What about the “release of IFNg from T cells” value (T cells) of the same compound?
Its value is “increased over the control”.

From patent US20230159442A1, “CELLULAR ENERGY COMPOUNDS, COMPOSITIONS, AND METHODS OF USE THEREOF” (priority 2021, published 2023)
